Data as given in US8217066B2, “Compounds as lysophosphatidic acid receptor antagonists” (Amira Pharmaceuticals, Inc., priority 2009, dated 2012).

What was measured:
[1] = tested on: A2058 human melanoma cells; assay: LPA1 chemotaxis assay; format: cell-based; settings: 100 nM LPA, read-out: inhibition of LPA-driven chemotaxis, IC50
Experimental: Chemotaxis of the A2058 human melanoma cells was measured using the Neuroprobe ChemoTx® System plates (8 μm pore size, 5.7 mm diameter sites). The filter sites were coated with 0.001% fibronectin (Sigma) in 20 mM Hepes, pH 7.4 and allowed to dry. A2058 cells were serum-starved for 24 hours, then harvested with Cell Stripper and resuspended in DMEM containing 0.1% fatty-acid-free bovine serum albumin (BSA) to a concentration of 1×10^6/ml. Cells were mixed with an equal volume of test compound (2×) in DMEM containing 0.1% fatty-acid-free BSA and incubated at 37° C. for 15 minutes. LPA (100 nM in DMEM containing 0.1% fatty-acid-free BSA) or vehicle was added to each well of the lower chamber and 50 μl of the cell suspension/test compound mix was applied to the upper portion of the ChemoTx plate. Plates were incubated at 37° C. for three hours and then the cells removed from the upper portion by rinsing with PBS and scraping. The filter was dried then stained with HEMA 3 Staining System (Fisher Scientific). The absorbance of the filter was read at 590 nm and IC50s were determined using Symyx Assay Explorer.

human LPA1 = target: T1, human LPA1 (Homo sapiens, UniProt Q92633); assay: LPA1 calcium flux assay (HLPA1 Ca Flux); format: cell-based; settings: CHO cells stably expressing human LPA1, stimulated with 10 nM LPA
T1 construct: the full-length cDNA for human LPA1 was obtained by PCR of the reverse transcription reaction; expressed in transfected cells
T1 sequence (Q92633 whole entry): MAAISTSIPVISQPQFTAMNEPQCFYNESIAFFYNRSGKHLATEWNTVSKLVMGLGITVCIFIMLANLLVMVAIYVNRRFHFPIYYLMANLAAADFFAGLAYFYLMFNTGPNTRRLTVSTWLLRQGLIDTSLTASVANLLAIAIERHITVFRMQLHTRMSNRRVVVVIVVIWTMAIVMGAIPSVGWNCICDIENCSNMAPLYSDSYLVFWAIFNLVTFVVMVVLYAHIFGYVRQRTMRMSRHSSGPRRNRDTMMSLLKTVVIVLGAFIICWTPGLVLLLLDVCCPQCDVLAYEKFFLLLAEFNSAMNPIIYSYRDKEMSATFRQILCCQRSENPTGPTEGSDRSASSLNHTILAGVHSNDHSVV
Experimental: A 1.1 kb cDNA encoding the human LPA1 receptor was cloned from human lung. Human lung RNA (Clontech Laboratories, Inc. USA) was reverse transcribed using the RETROscript kit (Ambion, Inc.) and the full-length cDNA for human LPA1 was obtained by PCR of the reverse transcription reaction. The nucleotide sequence of the cloned human LPA1 was determined by sequencing and confirmed to be identical to the published human LPA1 sequence (An et al. Biochem. Biophys. Res. Commun. 231:619 (1997). The cDNA was cloned into the pcDNA5/FRT expression plasmid and transfected in CHO cells using lipofectamine 2000 (Invitrogen Corp., USA). Clones stably expressing human LPA1 were selected using hygromycin and identified as cells that show Ca-influx in response to LPA.
Human LPA1 or LPA3 expressing CHO cells are seeded at 20,000-45,000 cells per well in a 96-well poly-D-lysine coated plate one or two days before the assay. Prior to the assay, the cells are washed once with PBS and then cultured in serum-free media overnight. On the day of the assay, a calcium indicator dye (Calcium 4, Molecular Devices) in assay buffer (HBSS with Ca^2+ and Mg^2+ and containing 20 mM Hepes and 0.3% fatty-acid free human serum albumin) is added to each well and incubation continued for 1 hour at 37° C. […] of test compounds in 2.5% DMSO are added to the cells and incubation continued at room temperature for 30 minutes. Cells are the stimulated by the addition of 10 nM LPA and intracellular Ca^2+ measured using the Flexstation 3 (Molecular Devices). IC50s are determined using Graphpad prism analysis of drug titration curves.

LPA receptor = settings: compared with LPA1 (−/−) mice, in which renal fibrosis was significantly attenuated; cited from earlier work
[2] = tested on: pancreatic cancer cell lines; settings: cited from earlier work
[3] = tested on: highly peritoneal metastatic pancreatic cancer cell line; settings: cited from earlier work

With `Cc1noc(-c2ccc(-c3ccc(C4(C(=O)O)CC4)cc3)cc2)c1NC(C)CCc1ccccc1` (centres unmarked) [Compound 4, 1-{4′-[3-Methyl-4-(1-methyl-3-phenyl-propylamino)-isoxazol-5-yl]-biphenyl-4-yl}-cyclopropanecarboxylic acid] the IC50 [1] was under 100 nM.

`Cc1noc(-c2ccc(-c3ccc(C4(C(=O)O)CC4)cc3)cc2)c1CC(F)(F)CCc1ccccc1` [Compound 21, 1-{4′-[4-(2,2-Difluoro-4-phenyl-butyl)-3-methyl-isoxazol-5-yl]-biphenyl-4-yl}-cyclopropanecarboxylic acid] showed an IC50 (human LPA1) of under 300 nM and an IC50 [1] of under 100 nM.

`Cc1noc(-c2ccc(-c3ccc(C4(C(=O)O)CC4)cc3)cc2)c1NC(C)CCc1cccc(F)c1` (centres unmarked) [Compound 30, 1-(4′-{4-[3-(3-Fluoro-phenyl)-1-methyl-propylamino]-3-methyl-isoxazol-5-yl}-biphenyl-4-yl)-cyclopropanecarboxylic acid] gave an IC50 (human LPA1) of under 300 nM and an IC50 [1] of under 100 nM.

In the case of `Cc1noc(-c2ccc(-c3ccc(C4(C(=O)O)CC4)cc3)cc2)c1C(O)CSCc1ccccc1` (centres unmarked) [Compound 38, 1-{4′-[4-(2-Benzylsulfanyl-1-hydroxy-ethyl)-3-methyl-isoxazol-5-yl]-biphenyl-4-yl}-cyclopropanecarboxylic acid], the IC50 (human LPA1) is reported as under 300 nM and the IC50 [1] is reported as under 100 nM.

Compound `Cc1noc(-c2ccc(-c3ccc(C4(C(=O)O)CC4)cc3)cc2)c1NC(C)CCc1cccc(Cl)c1` (centres unmarked) [Compound 41, 1-(4′-{4-[3-(3-Chloro-phenyl)-1-methyl-propylamino]-3-methyl-isoxazol-5-yl}-biphenyl-4-yl)-cyclopropanecarboxylic acid] has an IC50 [1] of under 100 nM.

Work on `Cc1noc(-c2ccc(-c3ccc(C4(C(=O)O)CC4)cc3)cc2)c1C(O)COCc1ccccc1` (centres unmarked) [Compound 42, 1-{4′-[4-(2-Benzyloxy-1-hydroxy-ethyl)-3-methyl-isoxazol-5-yl]-biphenyl-4-yl}-cyclopropanecarboxylic acid] yielded an IC50 [1] of under 100 nM.

In the case of `Cc1noc(-c2ccc(-c3ccc(C4(C(=O)O)CC4)cc3)cc2)c1[C@H](O)CO[C@H](C)c1ccccc1` [Compound 49, 1-(4′-{4-[(5)-1-Hydroxy-2-((R)-1-phenyl-ethoxy)-ethyl]-3-methyl-isoxazol-5-yl}-biphenyl-4-yl)-cyclopropanecarboxylic acid], the IC50 (human LPA1) is reported as under 300 nM and the IC50 [1] is reported as under 100 nM.

With `Cc1noc(-c2ccc(-c3ccc(C4(C(=O)O)CC4)cc3)cc2)c1NC(C)CCc1ccc(Cl)cc1` (centres unmarked) [Compound 54, 1-(4′-{4-[3-(4-Chloro-phenyl)-1-methyl-propylamino]-3-methyl-isoxazol-5-yl}-biphenyl-4-yl)-cyclopropanecarboxylic acid] the IC50 (human LPA1) was under 300 nM and the IC50 [1] was under 100 nM.

For `Cc1noc(-c2ccc(-c3ccc(C4(C(=O)O)CC4)cc3)cc2)c1[C@H](O)CSCc1ccccc1` [Compound 65, 1-{4′-[4-((S)-2-Benzylsulfanyl-1-hydroxy-ethyl)-3-methyl-isoxazol-5-yl]-biphenyl-4-yl}-cyclopropanecarboxylic acid], the IC50 (human LPA1) was under 300 nM and the IC50 [1] was under 100 nM.

`Cc1noc(-c2ccc(-c3ccc(C4(C(=O)NS(C)(=O)=O)CC4)cc3)cc2)c1[C@H](O)CO[C@H](C)c1ccccc1` [Compound 72, N-[1-(4′-{4-[(S)-1-Hydroxy-2-((R)-1-phenyl-ethoxy)-ethyl]-3-methyl-isoxazol-5-yl]-biphenyl-4-yl)-cyclopropanecarbonyl}-methanesulfonamide] gave an IC50 (human LPA1) of under 300 nM and an IC50 [1] of under 100 nM.

`Cc1noc(-c2ccc(-c3ccc(C4(C(=O)NS(C)(=O)=O)CC4)cc3)cc2)c1[C@H](O)COCc1ccccc1` [Compound 73, N-(1-{4′-[4-((S)-2-Benzyloxy-1-hydroxy-ethyl)-3-methyl-isoxazol-5-yl]-biphenyl-4-yl}-cyclopropanecarbonyl)-methanesulfonamide] showed an IC50 (human LPA1) of under 300 nM and an IC50 [1] of under 100 nM.

In the case of `Cc1noc(-c2ccc(-c3ccc(C4(C(=O)NS(C)(=O)=O)CC4)cc3)cc2)c1C(O)C(F)(F)CCc1ccccc1` (centres unmarked) [Compound 76, N-(1-{4′-[4-(2,2-Difluoro-1-hydroxy-4-phenyl-butyl)-3-methyl-isoxazol-5-yl]-biphenyl-4-yl}-cyclopropanecarbonyl)-methanesulfonamide], the IC50 (human LPA1) is reported as under 300 nM and the IC50 [1] is reported as under 100 nM.

`Cc1noc(-c2ccc(-c3ccc(C4(C(=O)NS(C)(=O)=O)CC4)cc3)cc2)c1[C@H](O)CSCc1ccccc1` [Compound 77, N-(1-{4′-[4-((S)-2-Benzylsulfanyl-1-hydroxy-ethyl)-3-methyl-isoxazol-5-yl]-biphenyl-4-yl}-cyclopropanecarbonyl)-methanesulfonamide] showed an IC50 (human LPA1) of under 300 nM and an IC50 [1] of under 100 nM.

In the case of `Cc1noc(-c2ccc(CSCCC(=O)O)cc2)c1NC(=O)OC(C)c1ccccc1Cl` (centres unmarked) [Ki16425], the “development of renal fibrosis in UUO mice” value (LPA receptor) is listed as “closely resembled the LPA1 (−/−) mice”, the “in vitro migration in response to LPA and peritoneal fluid (ascites) from pancreatic cancer patients” value [2] is listed as “effectively blocked” and the “LPA-induced and ascites-induced invasion activity” value [3] is listed as “blocked”.
